Results reported in patent US20110189669A1, “METHODS OF AIDING IN THE DIAGNOSIS OF PROSTATE CANCER” (IMPERIAL INNOVATIONS LIMITED, priority 2008, published 2011).

Assays:
[1] = system: GNMT; settings: cited from earlier work
[2] = system: LNCaP cells; assay: LNCaP cell growth (Sulphorhodamine B cell staining / cell numbers); type: cell-based
Description: A) LNCaP cell growth is stimulated by the synthetic androgen R1881 (1 nM), as measured using the Sulphorhodamine B cell staining assay.
LNCaP cells were cultured in the absence or presence of 1 nM R1881 and increasing concentrations of SAH for 6 days at which point cell numbers were measured.
Biological methylation reactions which utilise S-adenosylmethionine (SAM) as a methyl donor encompass several key cellular and metabolic processes and include the methylation of phospholipids, proteins, DNA and RNA. This class of reaction is carried out by methyltransferases that are represented by a diverse group of distantly related proteins (8-10), with domains that catalyse the transfer of the methyl group from SAM to a molecular substrate, together with the in-situ generation of SAH. For most methyltransferases, SAH is known to have a higher affinity than SAM for the catalytic site, thereby acting as a potent feedback inhibitor of methyltransferase activity within the cell. […] In most tissues, the balance between SAM and SAH and the subsequent regulation of global methylation activity resides in the ability to rapidly metabolise SAH through the enzyme S-adenosylhomocysteine hydrolase (SAH hydrolase). […] GNMT is a phylogenetically conserved enzyme (12) that methylates Glycine to produce N-Methyl Glycine (sarcosine), which is known to be largely physiologically inert, and also generates SAH. […]

[3] = system: LNCaP cells; assay: gene expression microarray of androgen-regulated genes in LNCaP cells; type: cell-based
Description: Microarray analysis was carried out on RNAs prepared from three bioreplicate cultures for the no ligand and R1881 treatments.
In order to identify androgen-regulated genes in LNCaP cells, we have performed gene expression microarray profiling using the Applied Biosystems Genome Survey Microarray V2.0. […] These genes include known androgen-responsive genes, including PSA (KLK3), KLK2, DRG-1 and TMPRSS2.
Detailed time course studies were undertaken to determine the time of androgen treatment for optimal expression of androgen-responsive genes (PSA and DRG-1) in the LNCaP cells (FIG. 1A-D). On the basis of these studies, RNA from […] bio-replicate cultures were prepared from LNCaP cells treated with androgen for 24 hours, as well as the no ligand control. The RNAs were subjected to RNA quality assays and validated by real-time RT-PCR for two control genes (GAPDH and RPLPO) and the androgen regulated genes PSA, DRG-1 and GREB-1. […] Three replicates from each treatment set were subsequently used for hybridisation to the Applied Biosystems (ABI) Human Genome Survey Microarray V2.0, which has probes for 29,098 genes, representing the most comprehensive coverage currently available for any human gene expression microarray platform. Raw data were quality assessed and filtered according to the recommendations supplied by the ABI1700 Data Analysis User Guide and the filtered data “vsn normalised” (4). Differential expression was assessed using liner models and empirical Bayes algorithms as described in (5). This analysis has robustly defined 456 probes whose expression was stimulated by androgen by two fold or greater, with positive lod scores (B values) for differential expression.

| Structure (SMILES) | inhibition of GNMT (literature statement) [1] | LNCaP cell growth ([2]; R1881 1 nM, Sulphorhodamine B assay) | up-regulation of DRG-1 expression ([3]; 24 hours androgen treatment) [fold] | up-regulation of KLK2 expression ([3]; 24 hours androgen treatment) [fold] | up-regulation of PSA (KLK3) expression ([3]; 24 hours androgen treatment) [fold] | up-regulation of TMPRSS2 expression ([3]; 24 hours androgen treatment) [fold] | increase in GNMT gene expression ([3]; within 24 hours of androgen treatment) [fold] | effect on androgen-stimulated growth of LNCaP cells ([2]; 1 nM R1881 plus increasing concentrations of SAH, 6 days) |
| --- | --- | --- | --- | --- | --- | --- | --- | --- |
| Nc1nc2ncc(CNc3ccc(C(=O)N[C@@H](CCC(=O)O)C(=O)O)cc3)nc2c(=O)[nH]1 [Folic acid] | allosteric inhibitor | – | – | – | – | – | – | – |
| C[C@]1(O)CC[C@H]2[C@@H]3CCC4=CC(=O)CCC4=C3C=C[C@@]21C [R1881] | – | stimulated | 24 | 32 | 30 | 16 | 16 | – |
| Nc1ncnc2c1ncn2[C@@H]1O[C@H](CSCC[C@H](N)C(=O)O)[C@@H](O)[C@H]1O [SAH, S-adenosyl-homocysteine] | relatively insensitive | – | – | – | – | – | – | potentiates the androgen-stimulated growth |
